Measured values from patent publication US20090136553A1, “TRIGGERABLY DISSOLVABLE HOLLOW FIBERS FOR CONTROLLED DELIVERY” (priority 2007, published 2009).

Tests used:
[1] = test system: surgically created aneurysm; conditions: bFGF collagen gel in fiber lumen, three weeks; cited from earlier work
[2] = test system: endothelial cell migration and vessel formation in Matrigel plug; experiment: In vivo murine Matrigel plug assay; set-up: species or system C57BL/6 mice; conditions: 10 μL daily of 100 μg/mL VEGF or 1800 μM S1P via fiber, 7 days post-implantation
Protocol: In vivo Assay. Growth factor reduced Matrigel™ (500 μL) was injected into the subcutaneous space on the dorsal side of C57BL/6 mice on both the left and right sides. A 12 G needle was used to thread cellulose hollow fibers through the skin and Matrigel™ plugs. Hollow fibers were fixed in place using tissue glue and an Elizabethan collar was used to prevent mice from extracting the hollow fiber. On the day of implantation and every day for the next 6 days, hollow fibers on the left side were injected with sterile saline and hollow fibers on the right side were injected with 10 μL of 100 μg/mL VEGF or 1800 μM S1P (see Table 8 for schedule).
Seven days post-implantation, implants were extracted, fixed and analyzed for endothelial cell migration and vessel formation. […] CD31 staining of Matrigel™ plug explants confirms that cells that have migrated into the Matrigel™ plugs are in fact endothelial cells (FIGS. 21E-H). Metamorph® was used to measure the % area of each image that consisted of endothelial cell staining in order to quantify endothelial cell migration.

Substance | fibrous tissue formation in aneurysm [1] | blood filled vessels (H&E) [2]
basic fibroblast growth factor [bFGF] | remained functional as it was able to guide the aneurysm to create fibrous tissue | 
vascular endothelial growth factor [VEGF] |  | blood filled vessels
